Data reported in patent US8541440B2 (priority 2005, dated 2013).
Counter-ions that a name gives are not always drawn. Like-named read-outs stand apart in the source and are kept apart here.

What was measured:
[1] = biological target: nicotinic receptors containing the α4β2 subunit (Rattus norvegicus, UniProt P09483+P12390); experiment: Affinity for nicotinic receptors containing the α4β2 subunit, [3H]-cytisine binding to rat brain membranes; conditions: read-out: Percentage of inhibition of the specific binding of [3H]-cytisine at a dose of 1 μM, for the α4β2 subunit
Sequence of nicotinic receptors containing the α4β2 subunit (P09483 31-630): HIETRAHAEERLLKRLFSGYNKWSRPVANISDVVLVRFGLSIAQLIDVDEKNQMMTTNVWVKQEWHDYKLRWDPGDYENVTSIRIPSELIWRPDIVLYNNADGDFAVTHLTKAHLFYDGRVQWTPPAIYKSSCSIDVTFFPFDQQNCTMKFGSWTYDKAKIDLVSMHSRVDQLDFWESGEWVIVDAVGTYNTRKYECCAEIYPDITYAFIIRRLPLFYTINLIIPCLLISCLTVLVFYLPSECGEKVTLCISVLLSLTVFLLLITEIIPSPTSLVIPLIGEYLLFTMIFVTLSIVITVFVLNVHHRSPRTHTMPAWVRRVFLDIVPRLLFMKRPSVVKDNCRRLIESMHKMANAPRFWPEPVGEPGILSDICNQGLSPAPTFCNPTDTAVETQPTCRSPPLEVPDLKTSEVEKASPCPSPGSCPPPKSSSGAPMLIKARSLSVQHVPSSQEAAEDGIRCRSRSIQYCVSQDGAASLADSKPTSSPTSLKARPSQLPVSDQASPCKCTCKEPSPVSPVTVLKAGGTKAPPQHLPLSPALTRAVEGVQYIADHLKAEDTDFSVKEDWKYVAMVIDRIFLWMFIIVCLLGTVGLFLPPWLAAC
Sequence of nicotinic receptors containing the α4β2 subunit (P12390 25-500): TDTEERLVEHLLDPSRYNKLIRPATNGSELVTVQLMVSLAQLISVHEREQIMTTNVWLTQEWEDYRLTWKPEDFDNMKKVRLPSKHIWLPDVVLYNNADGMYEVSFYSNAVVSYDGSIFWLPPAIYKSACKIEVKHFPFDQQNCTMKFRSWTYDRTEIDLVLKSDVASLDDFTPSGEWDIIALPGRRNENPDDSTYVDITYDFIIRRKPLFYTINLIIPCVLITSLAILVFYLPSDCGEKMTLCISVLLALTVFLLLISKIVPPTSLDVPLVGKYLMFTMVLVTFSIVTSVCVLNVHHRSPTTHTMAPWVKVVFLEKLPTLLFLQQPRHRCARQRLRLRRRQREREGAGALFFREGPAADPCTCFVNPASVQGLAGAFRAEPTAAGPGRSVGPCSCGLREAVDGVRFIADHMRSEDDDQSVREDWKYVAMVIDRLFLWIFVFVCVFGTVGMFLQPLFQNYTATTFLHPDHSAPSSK
Description: The compounds of the invention were also studied as regards their affinity for nicotinic receptors containing the α4β2 subunit according to the methods described by Anderson and Arneric, Eur. J. Pharmacol (1994), 253, 261, and by Hall et al., Brain Res. (1993), 600, 127.
Male Sprague Dawley rats weighing 150 to 200 g are decapitated and the entire brain is removed quickly, homogenized in 15 volumes of 0.32 M sucrose solution at 4° C. and then centrifuged at 1000×g for 10 min. The pellet is discarded and the supernatant is centrifuged at 20 000×g for 20 min at 4° C. The pellet is recovered and homogenized using a Polytron™ mill in 15 volumes of double-distilled water at 4° C., followed by centrifugation at 8000×g for 20 min. The pellet is discarded and the supernatant and the buffy coat are centrifuged at 40 000×g for 20 min, the pellet is recovered, resuspended in 15 ml of double-distilled water and centrifuged again at 40 000×g, before being stored at −80° C.
On the day of the experiment, the tissue is thawed slowly and suspended in 3 volumes of buffer. 150 μl of this membrane suspension are incubated at 4° C. for 120 min in the presence of 100 μl of 1 nM [^3H]-cytisine in a final volume of 500 μl of buffer, in the presence or absence of test compound. The reaction is stopped by filtration on Whatman GF/B™ filters pretreated with polyethyleneimine, the filters are rinsed with 2×5 ml of buffer at 4° C. and the radioactivity retained on the filter is measured by liquid scintigraphy. The non-specific binding is determined in the presence of 10 μM (−)-nicotine; the non-specific binding represents […] of the total binding recovered on the filter. For each concentration of test compound, the percentage of inhibition of the specific binding of [^3H]-cytisine is determined, at doses of 1 μM and 10 μM. For the most affine compounds of the invention, the IC50 value is calculated, which is the concentration of compound that inhibits the specific binding by 50%.

[2] = biological target: nicotinic receptors containing the α7 subunit (Rattus norvegicus, UniProt Q05941); experiment: biochemical; format: binding
Sequence of nicotinic receptors containing the α7 subunit (Q05941 23-502): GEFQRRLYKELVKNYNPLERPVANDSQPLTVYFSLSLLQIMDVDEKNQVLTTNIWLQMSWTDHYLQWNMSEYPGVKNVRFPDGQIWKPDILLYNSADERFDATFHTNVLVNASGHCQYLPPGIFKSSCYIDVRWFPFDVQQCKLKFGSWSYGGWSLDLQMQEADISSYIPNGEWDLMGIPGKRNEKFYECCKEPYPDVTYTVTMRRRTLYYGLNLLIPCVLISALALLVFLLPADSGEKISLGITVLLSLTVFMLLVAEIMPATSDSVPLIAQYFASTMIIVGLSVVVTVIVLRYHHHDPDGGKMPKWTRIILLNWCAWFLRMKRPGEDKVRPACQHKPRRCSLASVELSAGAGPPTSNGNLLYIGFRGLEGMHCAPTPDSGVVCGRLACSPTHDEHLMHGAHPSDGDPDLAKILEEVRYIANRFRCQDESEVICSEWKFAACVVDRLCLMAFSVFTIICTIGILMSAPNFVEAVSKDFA

[3] = compound at 1 μM, 1 nM [3H]-cytisine, rat brain membranes

C1=CC2(c3ccc(-n4ccnc4)nc3)CCN(C1)C2 (single isomer, unassigned) [Compound 11]
inhibition at 1 µM [1]: 36%
IC50 ([2]; read-out: IC50 α7): 83 nM

Cn1cc(-c2ccc(C34CCCN(CC3)C4)cn2)cn1 (racemic)
melting point: 138 to 140 °C

CCCn1cc(-c2ccc(C34C=CCN(CC3)C4)cn2)cn1 (stereo not drawn) (as salt: HBr)
melting point: 190 to 192 °C

C1=CC2(c3ccc(-c4ncc[nH]4)nc3)CCN(C1)C2 (single isomer, unassigned) [Compound 14]
inhibition at 1 µM [1, 3]: 45%
IC50 [2]: 99 nM

C1=CC2(c3ccc(-c4c[nH]cn4)nc3)CCN(C1)C2 (single isomer, unassigned) [Compound 9]
inhibition at 1 µM [1, 3]: 24%
IC50 [2]: 300 nM

C1=CC2(c3ccc(-c4cscn4)nc3)CCN(C1)C2 (stereo not drawn) (as salt: HBr)
melting point: 272 to 274 °C

C1=CC2(c3ccc(-c4ncc[nH]4)nc3)CCN(C1)C2 (single isomer, unassigned) (as salt: HBr) [Compound 14]
melting point: 234 to 236 °C

C1=CC2(c3ccc(-c4cc[nH]n4)nc3)CCN(C1)C2 (stereo not drawn) (as salt: HBr)
melting point: 273 to 275 °C

CC(C)Cn1cc(-c2ccc(C34C=CCN(CC3)C4)cn2)cn1 (stereo not drawn) (as salt: HBr)
melting point: 104 to 106 °C
